{
  "source": "patent US9821010B2",
  "about": "“Methods for expansion or depletion of T-regulatory cells” (The General Hospital Corporation, priority 2013, dated 2017)",
  "key": {"expanded CD4+CD25+ cells": {"tested_on": "expanded CD4+CD25+ cells", "assay": "Intracellular cytokine production of expanded Tregs after PMA and ionomycin", "type": "cell-based, human", "conditions": "PMA and ionomycin 24 hours; Tregs expanded with rapamycin", "description": "Expanded CD4^+CD25^+ cells were stimulated with phorbol myristate acetate (PMA) (2 ng/ml) and ionomycin (500 ng/ml) (Sigma) for 24 hours. Monensin (GolgiStop, BD Biosciences) was added for the last 4 hours of incubation. Cells were fixed and permeabilized using Human FOXP3 Buffer Set, followed by staining with fluorochrome-conjugated IFNγ and IL-10 mAbs.\nOne of the reasons for these Tregs showing high suppression capacity over CD8+ T cells may be due to Tregs lacking the ability to produce IFNγ."}, "[1]": {"tested_on": "freshly isolated human CD4+ cells", "assay": "FOXP3 induction by TNF-α in freshly isolated human CD4+ cells", "type": "cell-based", "description": "I cultured freshly isolated human CD4+ cells from 14 human subjects only with TNF-α for 16 hours (FIG. 1B). […] IL-2 is important for Tregs induction and maintenance in mice. […] Thus, the data in FIGS. 1B and 1C confirm that TNF-α […] in vitro."}, "[2]": {"tested_on": "CD25+FOXP3− cell population", "assay": "Overnight incubation of CD4+ cells with IL-2: CD25+FOXP3- cell population", "type": "cell-based, human", "conditions": "overnight incubation with IL-2", "description": "Despite high expression of TNFR2 on Tregs, some TNFR2 expression is also observable on CD4+ T cells that are not true Tregs because they only express intermediate levels of CD25, i.e., CD4^+CD25^mid cells. I therefore studied the impact of overnight incubation on CD25^mid cell subpopulations of IL-2 alone, IL-2 and TNF-α, or IL-2 and TNFR2 agonist, or IL-2 and TNFR2 antagonist. […] However, I observed suppression with IL-2 and TNFR2 antagonist relative to the other three groups."}, "[3]": {"conditions": "co-incubation with IL-2, compared to IL-2 alone"}},
  "note": "“Also recorded” adds a separate entry of the source.",
  "data": [
    {"substance": "TNF-α", "values": [
      {"measurement": "percentage of IFNγ+ cells / IFNγ production", "setting": "expanded CD4+CD25+ cells", "value": "lowest percentages of IFNγ+ cells"},
      {"measurement": "induction of Tregs (inducible FOXP3)", "setting": "[1]; TNF-α alone, 16 hours, 14 subjects", "value": "no induction of Tregs; also recorded: does not induce FOXP3"},
      {"measurement": "induction of Tregs (inducible FOXP3)", "setting": "[1]; [3]", "value": "significant increase in Tregs over IL-2 alone; also recorded: does induce it to higher levels"},
      {"measurement": "percentage of CD4+CD25hi FOXP3 cells (flow cytometry)", "setting": "[1]; [3]", "value": "increased the percentage of CD4+CD25^hi FOXP3 cells; also recorded: greater intracellular induction of FOXP3"},
      {"measurement": "proportion of CD25hiFOXP3− cells", "setting": "[2]", "value": "rise in the proportion of CD25^hiFOXP3^− cells"},
      {"measurement": "proportion of CD25hiFOXP3− cells", "setting": "[2]; listed as TNF", "value": "Significant percentage increases"}
    ]}
  ]
}
